Earlier results on 1 molecule are cited in EP2018866A1, “Pharmaceutical compositions containing voriconazole” (SANDOZ AG, priority 2007, dated 2009).

≈ marks a conversion by molar mass, not a printed value. Like-named read-outs stand apart in the source and are kept apart here.

With `C[C@@H](c1ncncc1F)[C@](O)(Cn1cncn1)c1ccc(F)cc1F` [Voriconazole, (2R,3S)-2-(2,4-Difluorophenyl)-3-(5-fluoro-4-pyrimidinyl)-1-(1H-1,2,4-triazol-1-yl)-butan-2-ol], the aqueous solubility is 200 µg/mL (≈ 573 µM) (at a pH 3) and 610 µg/mL (≈ 1750 µM) (at a pH 7).
